Molecules are shown by their SMILES.

Two molecules from paper PMC8261786 (Chemical Science, 2021) can be followed below.

Data set [1] in a line: SDS-PAGE. Format: physicochemical. Conditions: 25 μM amyloid peptide alone; for size of monomers and oligomers (SDS-PAGE): 1–2 h; for size of large aggregates (SDS-PAGE): 24 h.
Data set [2] relates to RIN-5fm cells. Kind of data set: MTT cell viability, RIN-5fm. In kind it is cell-based, rat. Conditions: 25 μM hIAPP, 24 h, n = 3.
Data set [3] concerns RIN-5fm cells. Kind of data set: LDH membrane leakage, RIN-5fm. Conditions: 25 μM hIAPP, 24 h, n = 3. Format: cell-based, rat.
Data set [4] deals with S. epidermidis. Kind of data set: Bacterial growth assay, S. epidermidis. In kind it is cell-based, Staphylococcus epidermidis (ATCC 14990). The conditions noted are these: amyloid peptides 25 μM.
Data set [5] relates to SH-SY5Y cells. The data set can be described thus: MTT cell viability, SH-SY5Y. Format: cell-based, human. Conditions: 25 μM amyloid, 24 h, n = 3.
In data set [6] the test system is SH-SY5Y cells. The data set can be described thus: LDH membrane leakage, SH-SY5Y. The conditions noted are these: 25 μM amyloid, 24 h, n = 3. Format: cell-based, human.
For data set [7], the system named is E. coli, P. aeruginosa, S. aureus and S. epidermidis. The data set can be described thus: Bacterial growth assay, four strains together. Format: cell-based. Conditions: hCT 25 μM, growth profiles.

In the case of `CC[C@H](C)[C@H](NC(=O)[C@H](C)NC(=O)CNC(=O)[C@H](Cc1ccccc1)NC(=O)[C@H](CC(N)=O)NC(=O)[C@H](CC(N)=O)NC(=O)[C@H](CO)NC(=O)[C@H](CO)NC(=O)[C@H](Cc1c[nH]cn1)NC(=O)[C@@H](NC(=O)[C@H](CC(C)C)NC(=O)[C@H](Cc1ccccc1)NC(=O)[C@H](CC(N)=O)NC(=O)[C@H](C)NC(=O)[C@H](CC(C)C)NC(=O)[C@H](CCCNC(=N)N)NC(=O)[C@H](CCC(N)=O)NC(=O)[C@@H](NC(=O)[C@H](C)NC(=O)[C@@H]1CSSC[C@H](NC(=O)[C@@H](N)CCCCN)C(=O)N[C@@H](CC(N)=O)C(=O)N[C@@H]([C@@H](C)O)C(=O)N[C@@H](C)C(=O)N[C@@H]([C@@H](C)O)C(=O)N1)[C@@H](C)O)C(C)C)C(=O)N[C@@H](CC(C)C)C(=O)N[C@@H](CO)C(=O)N[C@@H](CO)C(=O)N[C@H](C(=O)N[C@@H](CC(N)=O)C(=O)N[C@H](C(=O)NCC(=O)N[C@@H](CO)C(=O)N[C@@H](CC(N)=O)C(=O)N[C@H](C(=O)N[C@@H](Cc1ccc(O)cc1)C(N)=O)[C@@H](C)O)C(C)C)[C@@H](C)O` [hIAPP, human islet amyloid polypeptide 1–37], in data set [1], the “size of monomers and oligomers (SDS-PAGE)” value is listed as 5–15 kDa; the “size of large aggregates (SDS-PAGE)” value is over 25 kDa. Further, in data set [2], the “cell viability, amyloid alone” value worked out at 58%. Moreover, in data set [3], the “membrane leakage (LDH activity), amyloid alone” value was 36%. Besides, in data set [4], the “susceptibility of S. epidermidis” value was “not susceptible”.

As for `CC[C@H](C)[C@H](NC(=O)[C@H](C)NC(=O)[C@@H](NC(=O)[C@H](CCC(N)=O)NC(=O)[C@@H]1CCCN1C(=O)[C@H](Cc1ccccc1)NC(=O)[C@@H](NC(=O)[C@H](Cc1c[nH]cn1)NC(=O)[C@H](Cc1ccccc1)NC(=O)[C@H](CCCCN)NC(=O)[C@H](CC(N)=O)NC(=O)[C@H](Cc1ccccc1)NC(=O)[C@H](CC(=O)O)NC(=O)[C@H](CCC(N)=O)NC(=O)[C@@H](NC(=O)[C@H](Cc1ccc(O)cc1)NC(=O)[C@@H](NC(=O)CNC(=O)[C@H](CC(C)C)NC(=O)[C@H](CCSC)NC(=O)[C@@H]1CSSC[C@H](N)C(=O)NCC(=O)N[C@@H](CC(N)=O)C(=O)N[C@@H](CC(C)C)C(=O)N[C@@H](CO)C(=O)N[C@@H]([C@@H](C)O)C(=O)N1)[C@@H](C)O)[C@@H](C)O)[C@@H](C)O)[C@@H](C)O)C(=O)NCC(=O)N[C@H](C(=O)NCC(=O)N[C@@H](C)C(=O)N1CCC[C@H]1C(N)=O)C(C)C` [hCT, human calcitonin 1–32], in data set [1], the “size of monomers and oligomers (SDS-PAGE)” value is listed as 5–15 kDa; the “size of large aggregates (SDS-PAGE)” value is recorded as over 25 kDa. For the same molecule, the “cell viability, amyloid alone” value in data set [5] is 69%. Further, the “membrane leakage (LDH activity), amyloid alone” value in data set [6] was 26%. Also, in data set [4], the “susceptibility of S. epidermidis” value is recorded as “not susceptible”. Moreover, the “growth inhibition” value in data set [7] is recorded as “only inhibited the growth of P. aeruginosa”.
